Experimental data from PubChem BioAssay AID1259411 (Chemical Carcinogenesis Research Information System (CCRIS), 2018).
Calls of active or inactive are those of the source. No rule for the calls is given here.

System: rodent carcinogenicity bioassays, tumor incidence
Experiment: CCRIS carcinogenicity studies
Settings: Route: ORAL, Dose: 0, Dose: 0
Procedure, shortened: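 NCI-built, expert-reviewed records of carcinogenicity and related test outcomes (mutagenicity, tumor promotion/inhibition) compiled from published and report sources, historical span 1985-2011, not updated.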

Measured: carcinogen call

Nc1ccc(/C=C/c2ccc(N)c(S(=O)(=O)O)c2)c(S(=O)(=O)O)c1
inactive: Species: MOUSE, Strain/Sex: B6C3F1/FEMALE, 6250, 12500 PPM IN DIET FOR 103 WK (STUDY DURATION: 2 YR), 6250, 12500 PPM IN DIET FOR 103 WK (STUDY DURATION: 2 YR) inactive; negative | Species: MOUSE, Strain/Sex: B6C3F1/MALE, 6250, 12500 PPM IN DIET FOR 103 WK (STUDY DURATION: 2 YR), 6250, 12500 PPM IN DIET FOR 103 WK (STUDY DURATION: 2 YR) inactive; negative | Species: RAT, Strain/Sex: F344/FEMALE, 12500, 25000 PPM IN DIET FOR 103 WK (STUDY DURATION: 2 YR), 12500, 25000 PPM IN DIET FOR 103 WK (STUDY DURATION: 2 YR) inactive; negative | Species: RAT, Strain/Sex: F344/MALE, 12500, 25000 PPM IN DIET FOR 103 WK (STUDY DURATION: 2 YR), 12500, 25000 PPM IN DIET FOR 103 WK (STUDY DURATION: 2 YR) inactive; negative
